# Measurements: US20020137929A1, “1 - (3-heterocyclylphenyl) isothiourea, -isourea, -guanidine and -amidine herbicidal agents” (Intellectual Property Department, BASF Aktiengesellschaft, priority 1998, published 2002)
# How the values were obtained:
# [1] = test system: TRZAWR (Wheat, Winter, cv Riband); assay: Postemergence herbicidal evaluation; type: in vivo, Triticum aestivum; settings: postemergence
# Outline: (§1)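 Herbicidal effect was judged by eye on a 0–9 scale covering stand, vigor, deformity, size and chlorosis, compared with controls, four to five weeks after seedlings about two weeks old were sprayed (40 psi, ~0.0156–0.500 kg/ha).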
# [2] = test system: IPOHE (Morningglory, Ivyleaf); assay: Postemergence herbicidal evaluation; type: in vivo, Ipomoea hederacea; settings: postemergence
# Outline: as §1
# SETVI (Foxtail, Green) [3] = assay: Preemergence herbicidal evaluation; type: in vivo, Setaria viridis; settings: rated 4-5 weeks after treatment
# Outline: (§2)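 Greenhouse preemergence test: seed-soil mix sown on ~1 inch soil; aqueous acetone spray at equivalent of ~0.0156–0.500 kg/ha; greenhouse-held and watered; scored 0–9 visually at 4–5 weeks.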
# ECHCG (Barnyardgrass) = assay: Preemergence herbicidal evaluation; type: in vivo, Echinochloa crus-galli; settings: rated 4-5 weeks after treatment
# Outline: as §2
# SETVI (Foxtail, Green) [4] = assay: Postemergence herbicidal evaluation; type: in vivo, Setaria viridis; settings: postemergence
# Outline: as §1
# GALAP (Galium) = assay: Postemergence herbicidal evaluation; type: in vivo, Galium aparine; settings: postemergence
# Outline: as §1
# CYPIR (Rice Flatsedge) = assay: Preemergence weed control under flooded paddy conditions; type: in vivo, Cyperus iria; settings: rated 3-4 weeks after treatment
# Outline: (§3)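 Flooded-pot preemergence screen with silt loam and seeds in the upper 0.5 cm. Dose about 0.0313 to 0.500 kg/ha, delivered into flood water; visual 0-9 score after 3 to 4 weeks.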
# [5] = test system: ECHORC (Watergrass (Calif.)); assay: as above; type: in vivo, Echinochloa oryzoides; settings: rated 3-4 weeks after treatment
# Outline: as §3
# ZEAMX (Corn, Field) = assay: Preemergence herbicidal evaluation; type: in vivo, Zea mays; settings: rated 4-5 weeks after treatment
# Outline: as §2
# ABUTH (Velvetleaf) = assay: Preemergence herbicidal evaluation; type: in vivo, Abutilon theophrasti; settings: rated 4-5 weeks after treatment
# Outline: as §2
# MOOVA (Monochoria) = assay: Preemergence weed control under flooded paddy conditions; type: in vivo, Monochoria vaginalis; settings: rated 3-4 weeks after treatment
# Outline: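 Values are visual 0-9 scores against a control for a preemergence application into paddy flood water at about 0.0313 to 0.500 kg/ha. Greenhouse duration was three to four weeks.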
# [6] = test system: IPOHE (Morningglory, Ivyleaf); assay: Preemergence herbicidal evaluation; type: in vivo, Ipomoea hederacea; settings: rated 4-5 weeks after treatment
# Outline: as §2
smiles,measurement,setting,value
"CCOC(=O)CN1C(=O)C(C(=O)OCC)SC1=Nc1cc(-n2c(=O)cc(C(F)(F)F)n(C)c2=O)c(F)cc1Cl (centres unmarked) [Compound 127, 5-Carboxy-2-{{2-chloro-5-[3,6-dihydro-3-methyl-2,6-dioxo-4-(trifluoromethyl)-1(2H)-pyrimidinyl]-4-fluorophenyl}imino}-4-oxo-3-thiazolidineacetic acid, diethyl ester]",herbicidal rating TRZAWR,[1]; rate 0.0156 kg/ha,2.5
same,herbicidal rating TRZAWR,[1]; rate 0.0313 kg/ha,2.5
same,herbicidal rating TRZAWR,[1]; rate 0.0625 kg/ha,3.5
same,herbicidal rating TRZAWR,[1]; rate 0.1250 kg/ha,6.0
same,herbicidal rating IPOHE,[2]; rate 0.0156 kg/ha,9.0
same,herbicidal rating IPOHE,[2]; rate 0.0313 kg/ha,9.0
same,herbicidal rating IPOHE,[2]; rate 0.0625 kg/ha,9.0
same,herbicidal rating IPOHE,[2]; rate 0.1250 kg/ha,9.0
same,Preemergence herbicidal rating SETVI,"SETVI (Foxtail, Green) [3]; rate 0.0313 kg/ha",0.0
same,Preemergence herbicidal rating SETVI,"SETVI (Foxtail, Green) [3]; rate 0.0625 kg/ha",0.0
same,Preemergence herbicidal rating SETVI,"SETVI (Foxtail, Green) [3]; rate 0.1250 kg/ha",9.0
same,Preemergence herbicidal rating SETVI,"SETVI (Foxtail, Green) [3]; rate 0.2500 kg/ha",9.0
same,Preemergence herbicidal rating SETVI,"SETVI (Foxtail, Green) [3]; rate 0.5000 kg/ha",9.0
same,Preemergence herbicidal rating ECHCG,ECHCG (Barnyardgrass); rate 0.0313 kg/ha,0.0
same,Preemergence herbicidal rating ECHCG,ECHCG (Barnyardgrass); rate 0.0625 kg/ha,0.0
same,Preemergence herbicidal rating ECHCG,ECHCG (Barnyardgrass); rate 0.1250 kg/ha,0.0
same,Preemergence herbicidal rating ECHCG,ECHCG (Barnyardgrass); rate 0.2500 kg/ha,0.0
same,Preemergence herbicidal rating ECHCG,ECHCG (Barnyardgrass); rate 0.5000 kg/ha,0.0
same,herbicidal rating SETVI,"SETVI (Foxtail, Green) [4]; rate 0.0156 kg/ha",0.0
same,herbicidal rating SETVI,"SETVI (Foxtail, Green) [4]; rate 0.0313 kg/ha",1.0
same,herbicidal rating SETVI,"SETVI (Foxtail, Green) [4]; rate 0.0625 kg/ha",7.0
same,herbicidal rating SETVI,"SETVI (Foxtail, Green) [4]; rate 0.1250 kg/ha",9.0
same,herbicidal rating GALAP,GALAP (Galium); rate 0.0156 kg/ha,0.0
same,herbicidal rating GALAP,GALAP (Galium); rate 0.0313 kg/ha,0.0
same,herbicidal rating GALAP,GALAP (Galium); rate 0.0625 kg/ha,2.0
same,herbicidal rating GALAP,GALAP (Galium); rate 0.1250 kg/ha,3.0
same,"herbicidal effect rating, CYPIR",CYPIR (Rice Flatsedge); 0.0313 kg/ha,2.0
same,"herbicidal effect rating, CYPIR",CYPIR (Rice Flatsedge); 0.0625 kg/ha,2.0
same,"herbicidal effect rating, CYPIR",CYPIR (Rice Flatsedge); 0.1250 kg/ha,4.0
same,"herbicidal effect rating, CYPIR",CYPIR (Rice Flatsedge); 0.2500 kg/ha,4.0
same,"herbicidal effect rating, ECHORC",[5]; 0.0313 kg/ha,4.0
same,"herbicidal effect rating, ECHORC",[5]; 0.0625 kg/ha,7.0
same,"herbicidal effect rating, ECHORC",[5]; 0.1250 kg/ha,9.0
same,"herbicidal effect rating, ECHORC",[5]; 0.2500 kg/ha,9.0
same,Preemergence herbicidal rating ZEAMX,"ZEAMX (Corn, Field); rate 0.0313 kg/ha",0.0
same,Preemergence herbicidal rating ZEAMX,"ZEAMX (Corn, Field); rate 0.0625 kg/ha",0.0
same,Preemergence herbicidal rating ZEAMX,"ZEAMX (Corn, Field); rate 0.1250 kg/ha",0.0
same,Preemergence herbicidal rating ZEAMX,"ZEAMX (Corn, Field); rate 0.2500 kg/ha",4.0
same,Preemergence herbicidal rating ZEAMX,"ZEAMX (Corn, Field); rate 0.5000 kg/ha",8.0
same,Preemergence herbicidal rating ABUTH,ABUTH (Velvetleaf); rate 0.0313 kg/ha,7.0
same,Preemergence herbicidal rating ABUTH,ABUTH (Velvetleaf); rate 0.0625 kg/ha,7.0
same,Preemergence herbicidal rating ABUTH,ABUTH (Velvetleaf); rate 0.1250 kg/ha,9.0
same,Preemergence herbicidal rating ABUTH,ABUTH (Velvetleaf); rate 0.2500 kg/ha,9.0
same,Preemergence herbicidal rating ABUTH,ABUTH (Velvetleaf); rate 0.5000 kg/ha,9.0
same,"herbicidal effect rating, MOOVA",MOOVA (Monochoria); 0.0313 kg/ha,3.0
same,"herbicidal effect rating, MOOVA",MOOVA (Monochoria); 0.0625 kg/ha,3.0
same,"herbicidal effect rating, MOOVA",MOOVA (Monochoria); 0.1250 kg/ha,5.0
same,"herbicidal effect rating, MOOVA",MOOVA (Monochoria); 0.2500 kg/ha,7.0
same,Preemergence herbicidal rating IPOHE,[6]; rate 0.0313 kg/ha,0.0
same,Preemergence herbicidal rating IPOHE,[6]; rate 0.0625 kg/ha,0.0
same,Preemergence herbicidal rating IPOHE,[6]; rate 0.1250 kg/ha,1.0
same,Preemergence herbicidal rating IPOHE,[6]; rate 0.2500 kg/ha,9.0
same,Preemergence herbicidal rating IPOHE,[6]; rate 0.5000 kg/ha,9.0
